{"source": "patent US8586094B2", "about": "“Coated tablets” (Jagotec AG, priority 2000, dated 2013)", "origin": "cited, not measured here", "note": "Read-outs that look alike come from different tables or passages of the source."}
{"compound": "CC(C)(Oc1ccc(C(=O)c2ccc(Cl)cc2)cc1)C(=O)O", "note": "[fenofibric acid]", "values": [{"measurement": "elimination / plasma half-life", "value": "approximately twenty"}, {"measurement": "elimination / plasma half-life", "setting": "listed as Fenofibric acid", "value": "about 20 hours"}]}
